Reference: EPA's ToxRefDB 2

How the values were obtained:
rat [1] = conditions: Developmental neurotoxicity range-finding study, sprague dawley, Oral, Feed, dose end: 21 PND, group: cannot be grouped
rat [2] = conditions: Subchronic oral toxicity in rodents, sprague dawley, Feed, dose end: 90 day
dog [3] = conditions: Chronic toxicity, beagle, Oral, Feed, dose end: 52 week
rat [4] = conditions: Prenatal developmental toxicity study, sprague dawley, Oral, Gavage/Intubation, dose end: 15 GD
rat [5] = conditions: Chronic toxicity, sprague dawley, Oral, Feed, dose end: 98 week, group: cholinesterase
rat [6] = conditions: Acute oral toxicity, wistar, [Not Specified], dose end: 7 day, group: systemic, systemic / clinical chemistry / calcium / calcium + systemic / urinalysis / calcium / calcium
dog [7] = conditions: Chronic toxicity; beagle; Oral; Capsule; dose end: 12 month; group: systemic; systemic / in life observation / clinical signs / emesis + systemic / in life observation / clinical signs / mucoid stools + systemic / in …
mouse [8] = conditions: Carcinogenicity, cd1, Oral, Feed, dose end: 22 month, group: systemic
rabbit = conditions: Prenatal developmental toxicity study, new zealand white, Oral, Gavage/Intubation, dose end: 19 GD
mouse [9] = conditions: Carcinogenicity; cd1; Oral; Feed; dose end: 113 week; group: systemic; systemic / pathology microscopic / intestine small / adenocarcinoma + systemic / pathology microscopic / intestine small / adenoma + …
[10] = cholinesterase / cholinesterase / cholinesterase / plasma cholinesterase (che)
[11] = cholinesterase / cholinesterase / cholinesterase / plasma cholinesterase (che) + cholinesterase / cholinesterase / cholinesterase / brain …
[12] = group: cholinesterase, cholinesterase / cholinesterase / cholinesterase / plasma cholinesterase (che)
[13] = group: cholinesterase, cholinesterase / cholinesterase / cholinesterase / plasma cholinesterase (che) + cholinesterase / cholinesterase / cholinesterase / brain …
[14] = group: systemic, systemic / in life observation / body weight / body weight gain + systemic / in life observation / clinical signs / aggressive behavior + …
[15] = group: cholinesterase, cholinesterase / cholinesterase / cholinesterase / cholinesterase (che) + cholinesterase / cholinesterase / cholinesterase / plasma …
[16] = group: systemic, systemic / organ weight / lung / relative to brain weight
[17] = group: developmental, developmental / developmental malformation / bone / short + systemic / in life observation / body weight / fetal weight
[18] = group: maternal, systemic / in life observation / body weight / body weight gain + reproductive / reproductive performance / postimplantation loss / …
[19] = systemic / pathology microscopic / intestine small / neoplasm nos + systemic / pathology microscopic / stomach / neoplasm nos + systemic / …
[20] = group: developmental, developmental / developmental malformation / bone / delayed ossification + developmental / developmental malformation / bone / full …
[21] = group: maternal, systemic / in life observation / body weight / body weight gain + systemic / in life observation / clinical signs / anorexia + systemic / in…

Molecule `CCOP(=S)(OCC)Oc1cc(C)nc(C(C)C)n1` [Diazinon] has an LOAEL (rat [1]; [10]) of 0.063 mg/kg/day, an LEL (rat [1]; [11]) of 0.063 mg/kg/day and an NEL (rat [1]; [11]) of 0.0125 mg/kg/day. The NOAEL (rat [1]; [11]) was 0.0125 mg/kg/day, the LEL (rat [2]; [12]) was 0.3 mg/kg/day and the LOAEL (rat [2]; [12]) was 0.3 mg/kg/day. For the same molecule, the NEL (rat [2]; [13]) was 0.03 mg/kg/day, the NOAEL (rat [2]; [13]) was 0.03 mg/kg/day and the LEL (rat [2]; [14]) was 168 mg/kg/day. It also gave an LOAEL (rat [2]; [14]) greater than 168 mg/kg/day, an NEL (rat [2]; [14]) of 15 mg/kg/day and an NOAEL (rat [2]; [14]) of no less than 168 mg/kg/day. The LEL (dog [3]; group: cholinesterase, cholinesterase / cholinesterase / cholinesterase / cholinesterase (che)) was 0.015 mg/kg/day, the NEL (dog [3]; group: cholinesterase, cholinesterase / cholinesterase / cholinesterase / cholinesterase (che) + cholinesterase / cholinesterase / cholinesterase / brain …) was 0.0032 mg/kg/day and the LOAEL (dog [3]; [15]) was 0.02 mg/kg/day. The NOAEL (dog [3]; [15]) was 0.0037 mg/kg/day, the LOAEL (dog [3]; group: systemic, systemic / clinical chemistry / [other] / [other] + systemic / in life observation / food consumption / food consumption) was 4.5 mg/kg/day and the NOAEL (dog [3]; group: systemic, systemic / clinical chemistry / [other] / [other] + systemic / in life observation / food consumption / food consumption + systemic / in …) was 0.02 mg/kg/day. For the same molecule, the LEL (dog [3]; [16]) was 0.0037 mg/kg/day, the NEL (dog [3]; [16]) was less than 0.0037 mg/kg/day and the LOAEL (rat [4]; group: developmental, developmental / developmental malformation / bone / short) was 100 mg/kg/day. For the same molecule, the LEL (rat [4]; [17]) was 100 mg/kg/day, the NEL (rat [4]; [17]) was 20 mg/kg/day and the NOAEL (rat [4]; [17]) was 20 mg/kg/day. It also gave an LOAEL (rat [4]; group: maternal, systemic / in life observation / body weight / body weight gain) of 100 mg/kg/day, an LEL (rat [4]; [18]) of 100 mg/kg/day and an NEL (rat [4]; [18]) of 20 mg/kg/day. For the same molecule, the NOAEL (rat [4]; [18]) was 20 mg/kg/day, the LEL (rat [5]; [10]) was 0.06 mg/kg/day and the LOAEL (rat [5]; [10]) was 0.06 mg/kg/day. It also gave an NEL (rat [5]; [11]) of 0.004 mg/kg/day and an NOAEL (rat [5]; [11]) of 0.004 mg/kg/day.
Work on `COc1ccc2c(c1)c(CC(=O)O)c(C)n2C(=O)c1ccc(Cl)cc1` [Indomethacin] yielded an LEL (rat [6]) of 20 mg/kg/day, an LOAEL (rat [6]) greater than 20 mg/kg/day and an NEL (rat [6]) of less than 20 mg/kg/day. For the same molecule, the NOAEL (rat [6]) was no less than 20 mg/kg/day.
Work on `O=C1C2CC=CCC2C(=O)N1SC(Cl)(Cl)Cl` (stereo unspecified) [Captan] yielded an LEL (dog [7]) of 300 mg/kg/day, an LOAEL (dog [7]) of 300 mg/kg/day and an NEL (dog [7]) of 60 mg/kg/day. It also gave an NOAEL (dog [7]) of 60 mg/kg/day, an LOAEL (mouse [8]; systemic / in life observation / body weight / body weight + systemic / in life observation / food consumption / food consumption) of 925 mg/kg/day and an LEL (mouse [8]; systemic / pathology microscopic / intestine small / neoplasm nos + systemic / pathology microscopic / stomach / neoplasm nos) of 60.9 mg/kg/day. It also gave an NEL (mouse [8]; [19]) of 15.1 mg/kg/day, an NOAEL (mouse [8]; [19]) of 123 mg/kg/day and an LEL (rabbit; [20]) of 30 mg/kg/day. The LOAEL (rabbit; [20]) was 30 mg/kg/day, the NEL (rabbit; [20]) was 10 mg/kg/day and the NOAEL (rabbit; [20]) was 10 mg/kg/day. It also gave an LEL (rabbit; [21]) of 30 mg/kg/day, an LOAEL (rabbit; [21]) of 30 mg/kg/day and an NEL (rabbit; [21]) of 10 mg/kg/day. It also gave an NOAEL (rabbit; [21]) of 10 mg/kg/day, an LEL (mouse [9]) of 599 mg/kg/day and an LOAEL (mouse [9]) greater than 1880 mg/kg/day. The NEL (mouse [9]) was less than 599 mg/kg/day and the NOAEL (mouse [9]) was no less than 1880 mg/kg/day.
